Laboratory results reported in ChEMBL document CHEMBL1201862, “PubChem BioAssay data set” (2004).
Active and inactive are the calls of the source.

Columns and labels:
[1] = target: T1, Tyrosine-protein phosphatase non-receptor type 7 (Homo sapiens, UniProt P35236); format: functional
T1 sequence (P35236 whole entry): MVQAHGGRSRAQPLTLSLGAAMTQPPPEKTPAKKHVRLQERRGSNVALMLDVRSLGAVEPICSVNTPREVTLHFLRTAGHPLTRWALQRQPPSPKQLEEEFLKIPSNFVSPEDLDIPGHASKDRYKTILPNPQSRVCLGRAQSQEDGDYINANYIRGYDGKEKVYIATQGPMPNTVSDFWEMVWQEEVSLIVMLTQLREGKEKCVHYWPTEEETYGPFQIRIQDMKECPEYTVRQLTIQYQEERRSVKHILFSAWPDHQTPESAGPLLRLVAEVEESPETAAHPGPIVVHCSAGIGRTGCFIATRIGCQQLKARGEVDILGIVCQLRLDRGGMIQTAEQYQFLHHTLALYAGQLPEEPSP

[2] = target: T2, Tyrosine-protein phosphatase non-receptor type 22 (Homo sapiens, UniProt Q9Y2R2); format: functional
T2 sequence (Q9Y2R2 whole entry): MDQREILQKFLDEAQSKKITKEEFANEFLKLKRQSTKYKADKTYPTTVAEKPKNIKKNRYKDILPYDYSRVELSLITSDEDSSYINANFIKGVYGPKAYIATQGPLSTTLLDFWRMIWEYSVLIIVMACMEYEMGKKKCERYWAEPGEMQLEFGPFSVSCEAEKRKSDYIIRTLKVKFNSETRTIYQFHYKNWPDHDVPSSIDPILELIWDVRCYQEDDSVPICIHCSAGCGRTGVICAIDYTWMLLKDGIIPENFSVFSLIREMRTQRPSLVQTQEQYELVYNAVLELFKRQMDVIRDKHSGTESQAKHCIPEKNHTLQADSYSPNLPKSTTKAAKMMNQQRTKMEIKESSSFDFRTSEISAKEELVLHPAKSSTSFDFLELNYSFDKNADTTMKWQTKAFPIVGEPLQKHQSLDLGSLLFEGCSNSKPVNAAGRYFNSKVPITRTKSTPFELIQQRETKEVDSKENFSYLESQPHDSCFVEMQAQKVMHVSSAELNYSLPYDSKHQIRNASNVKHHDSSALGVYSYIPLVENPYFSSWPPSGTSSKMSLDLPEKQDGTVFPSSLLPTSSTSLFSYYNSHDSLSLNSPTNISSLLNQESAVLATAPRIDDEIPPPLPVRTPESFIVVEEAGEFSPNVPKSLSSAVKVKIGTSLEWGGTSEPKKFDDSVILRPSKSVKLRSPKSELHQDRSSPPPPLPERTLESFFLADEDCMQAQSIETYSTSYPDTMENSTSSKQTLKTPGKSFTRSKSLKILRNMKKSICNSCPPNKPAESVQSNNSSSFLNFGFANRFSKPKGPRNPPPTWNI

[3] = target: T2, Tyrosine-protein phosphatase non-receptor type 22; format: functional; remark: listed apart in the source
Cytochrome P450 2C19 = Cytochrome P450 2C19 (Homo sapiens, UniProt P33261); assay: Cytochrome panel assay with activity outcomes. Panel member name: p450-cyp2c19 Compounds with AC50 equal or less than 10 uM are considered active; format: functional
Cytochrome P450 2C19, sequence (P33261 whole entry): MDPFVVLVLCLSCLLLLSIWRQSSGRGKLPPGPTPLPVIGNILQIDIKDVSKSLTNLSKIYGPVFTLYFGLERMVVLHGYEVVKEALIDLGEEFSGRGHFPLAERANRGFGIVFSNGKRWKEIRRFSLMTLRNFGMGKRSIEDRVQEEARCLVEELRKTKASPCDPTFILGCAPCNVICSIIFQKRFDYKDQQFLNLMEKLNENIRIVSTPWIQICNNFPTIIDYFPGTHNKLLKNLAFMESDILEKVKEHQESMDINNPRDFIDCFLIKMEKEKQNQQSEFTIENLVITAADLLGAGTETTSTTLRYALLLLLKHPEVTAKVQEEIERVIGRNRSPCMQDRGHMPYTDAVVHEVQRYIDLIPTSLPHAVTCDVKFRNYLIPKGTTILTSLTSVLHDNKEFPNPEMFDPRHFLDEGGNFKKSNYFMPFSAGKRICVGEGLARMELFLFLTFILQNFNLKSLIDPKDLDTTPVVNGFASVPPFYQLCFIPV

Cytochrome P450 2D6 = Cytochrome P450 2D6 (Homo sapiens, UniProt P10635);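 further: CYP2D6 member of a cytochrome P450 panel assay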
Cytochrome P450 2D6, sequence (P10635 whole entry): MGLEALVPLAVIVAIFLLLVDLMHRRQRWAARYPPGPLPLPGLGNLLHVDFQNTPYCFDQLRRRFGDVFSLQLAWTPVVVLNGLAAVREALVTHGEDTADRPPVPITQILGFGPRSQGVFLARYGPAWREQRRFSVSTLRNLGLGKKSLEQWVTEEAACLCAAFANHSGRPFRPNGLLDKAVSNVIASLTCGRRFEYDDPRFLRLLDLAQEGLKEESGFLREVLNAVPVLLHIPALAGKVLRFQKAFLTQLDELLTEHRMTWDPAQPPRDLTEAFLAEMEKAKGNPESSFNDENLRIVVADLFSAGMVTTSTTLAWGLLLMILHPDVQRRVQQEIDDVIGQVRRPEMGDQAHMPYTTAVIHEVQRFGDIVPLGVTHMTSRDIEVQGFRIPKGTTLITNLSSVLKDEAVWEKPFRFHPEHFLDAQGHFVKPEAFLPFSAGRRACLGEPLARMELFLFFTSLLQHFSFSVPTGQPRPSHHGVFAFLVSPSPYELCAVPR

Caspase-6 = target: T3, Caspase-6 (Homo sapiens, UniProt P55212); assay: inhibition of CASP6 peptide cleavage – biochemical, VEID-R110 fluorescence, cherry-pick, dose response (AID 720632)
T3 sequence (P55212 whole entry): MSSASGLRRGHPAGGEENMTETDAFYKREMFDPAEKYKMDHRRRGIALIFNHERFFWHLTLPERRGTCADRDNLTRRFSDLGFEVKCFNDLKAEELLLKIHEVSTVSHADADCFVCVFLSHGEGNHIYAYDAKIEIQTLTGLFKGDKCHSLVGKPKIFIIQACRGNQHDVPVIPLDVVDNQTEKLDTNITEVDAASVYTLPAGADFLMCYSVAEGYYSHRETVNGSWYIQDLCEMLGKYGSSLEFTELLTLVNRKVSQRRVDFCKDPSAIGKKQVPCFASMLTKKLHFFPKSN

[4] = target: T4, Histone-lysine N-methyltransferase NSD2 (Homo sapiens, UniProt O96028); format: biochemical
T4 sequence (O96028 whole entry): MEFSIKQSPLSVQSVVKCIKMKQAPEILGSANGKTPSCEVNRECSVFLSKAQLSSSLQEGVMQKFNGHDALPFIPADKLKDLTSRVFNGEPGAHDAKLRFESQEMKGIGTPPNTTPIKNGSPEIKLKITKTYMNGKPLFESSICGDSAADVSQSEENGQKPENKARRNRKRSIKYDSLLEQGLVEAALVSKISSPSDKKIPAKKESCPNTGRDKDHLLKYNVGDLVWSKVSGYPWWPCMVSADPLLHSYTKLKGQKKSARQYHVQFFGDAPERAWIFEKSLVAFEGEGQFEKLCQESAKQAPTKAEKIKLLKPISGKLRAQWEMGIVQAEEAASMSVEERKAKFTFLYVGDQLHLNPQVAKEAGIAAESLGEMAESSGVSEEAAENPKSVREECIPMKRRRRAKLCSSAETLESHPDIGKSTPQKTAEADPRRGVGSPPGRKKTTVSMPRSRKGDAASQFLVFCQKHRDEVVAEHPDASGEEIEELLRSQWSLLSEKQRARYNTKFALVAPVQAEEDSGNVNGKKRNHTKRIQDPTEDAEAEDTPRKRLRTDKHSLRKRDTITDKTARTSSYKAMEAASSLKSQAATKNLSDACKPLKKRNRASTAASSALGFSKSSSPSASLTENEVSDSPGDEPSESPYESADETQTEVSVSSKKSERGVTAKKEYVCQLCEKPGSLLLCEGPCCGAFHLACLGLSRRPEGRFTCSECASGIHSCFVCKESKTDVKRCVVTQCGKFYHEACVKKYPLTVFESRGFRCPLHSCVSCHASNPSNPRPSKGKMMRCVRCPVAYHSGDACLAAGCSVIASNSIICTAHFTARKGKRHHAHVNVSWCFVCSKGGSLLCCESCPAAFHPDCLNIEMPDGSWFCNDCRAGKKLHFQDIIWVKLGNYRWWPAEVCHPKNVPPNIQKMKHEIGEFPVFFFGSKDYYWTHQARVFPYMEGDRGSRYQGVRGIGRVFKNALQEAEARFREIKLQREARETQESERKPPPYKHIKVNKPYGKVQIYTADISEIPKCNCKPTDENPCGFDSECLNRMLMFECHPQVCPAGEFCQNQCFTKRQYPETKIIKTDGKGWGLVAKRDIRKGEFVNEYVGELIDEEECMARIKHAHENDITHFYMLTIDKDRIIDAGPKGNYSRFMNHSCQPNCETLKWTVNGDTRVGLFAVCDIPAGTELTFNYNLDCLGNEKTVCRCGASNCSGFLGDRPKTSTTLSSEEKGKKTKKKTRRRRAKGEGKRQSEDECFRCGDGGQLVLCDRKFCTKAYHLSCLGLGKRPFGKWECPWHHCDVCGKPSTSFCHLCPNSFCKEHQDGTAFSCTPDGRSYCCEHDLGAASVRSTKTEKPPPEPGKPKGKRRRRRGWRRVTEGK

[5] = fluconazole-exposed Candida albicans growth modulators – fluorescence, retest, confirmation (AID 2467); format: functional, cell-based
[6] = NIH-3T3 fibroblast cytotoxicity, dose response, cytotoxicity control, cell-based, fluorescence, Alamar Blue, secondary assay (AID 2327); format: functional;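 further: NIH-3T3 mouse fibroblasts cultured with fluconazole at 8 µg/mL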
[7] = target: Intestinal-type alkaline phosphatase (Homo sapiens, UniProt P09923); assay: activation of human intestinal alkaline phosphatase – biochemical, dose response (AID 488873); format: functional
Intestinal-type alkaline phosphatase (Homo sapiens, UniProt P09923), sequence (P09923 whole entry): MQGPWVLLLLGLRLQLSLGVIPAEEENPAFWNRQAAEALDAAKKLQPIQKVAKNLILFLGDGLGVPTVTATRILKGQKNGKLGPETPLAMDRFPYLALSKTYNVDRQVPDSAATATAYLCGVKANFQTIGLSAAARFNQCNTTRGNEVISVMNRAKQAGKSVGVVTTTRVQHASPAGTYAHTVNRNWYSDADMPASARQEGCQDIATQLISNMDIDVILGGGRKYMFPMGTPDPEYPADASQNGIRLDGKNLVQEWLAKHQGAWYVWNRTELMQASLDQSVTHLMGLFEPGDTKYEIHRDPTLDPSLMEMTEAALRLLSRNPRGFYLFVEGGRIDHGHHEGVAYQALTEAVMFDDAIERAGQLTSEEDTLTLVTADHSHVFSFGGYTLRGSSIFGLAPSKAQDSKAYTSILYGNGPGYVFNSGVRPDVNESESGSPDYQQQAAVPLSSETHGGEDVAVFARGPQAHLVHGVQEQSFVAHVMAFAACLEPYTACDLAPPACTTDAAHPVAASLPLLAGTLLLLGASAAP

[8] = target: T5, Alkaline phosphatase, tissue-nonspecific isozyme (Homo sapiens, UniProt P05186); assay: activation of tissue-nonspecific alkaline phosphatase – biochemical, TNAP isozyme, mouse IAP uHTS hits, selectivity assay for mouse IAP activator project, dose response (AID 488880); format: functional
T5 sequence (P05186 whole entry): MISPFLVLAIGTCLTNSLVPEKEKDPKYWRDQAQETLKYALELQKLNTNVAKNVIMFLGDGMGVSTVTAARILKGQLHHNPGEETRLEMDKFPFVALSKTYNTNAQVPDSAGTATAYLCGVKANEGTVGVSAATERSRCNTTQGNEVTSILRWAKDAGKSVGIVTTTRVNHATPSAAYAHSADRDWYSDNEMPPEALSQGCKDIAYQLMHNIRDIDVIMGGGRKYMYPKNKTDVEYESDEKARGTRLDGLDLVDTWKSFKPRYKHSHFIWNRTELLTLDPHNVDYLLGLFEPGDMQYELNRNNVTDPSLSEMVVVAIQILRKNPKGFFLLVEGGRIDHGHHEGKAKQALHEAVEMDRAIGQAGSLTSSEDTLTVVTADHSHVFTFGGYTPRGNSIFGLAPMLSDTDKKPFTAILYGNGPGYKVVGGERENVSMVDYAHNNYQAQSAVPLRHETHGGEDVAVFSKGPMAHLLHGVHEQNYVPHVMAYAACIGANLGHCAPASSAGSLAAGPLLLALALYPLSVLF

[9] = target: Intestinal-type alkaline phosphatase (Mus musculus, UniProt P24822); assay: mouse intestinal alkaline phosphatase activators, dose response, biochemical, luminescence, uHTS hits (AID 488783); format: functional
Intestinal-type alkaline phosphatase (Mus musculus, UniProt P24822), sequence (P24822 whole entry): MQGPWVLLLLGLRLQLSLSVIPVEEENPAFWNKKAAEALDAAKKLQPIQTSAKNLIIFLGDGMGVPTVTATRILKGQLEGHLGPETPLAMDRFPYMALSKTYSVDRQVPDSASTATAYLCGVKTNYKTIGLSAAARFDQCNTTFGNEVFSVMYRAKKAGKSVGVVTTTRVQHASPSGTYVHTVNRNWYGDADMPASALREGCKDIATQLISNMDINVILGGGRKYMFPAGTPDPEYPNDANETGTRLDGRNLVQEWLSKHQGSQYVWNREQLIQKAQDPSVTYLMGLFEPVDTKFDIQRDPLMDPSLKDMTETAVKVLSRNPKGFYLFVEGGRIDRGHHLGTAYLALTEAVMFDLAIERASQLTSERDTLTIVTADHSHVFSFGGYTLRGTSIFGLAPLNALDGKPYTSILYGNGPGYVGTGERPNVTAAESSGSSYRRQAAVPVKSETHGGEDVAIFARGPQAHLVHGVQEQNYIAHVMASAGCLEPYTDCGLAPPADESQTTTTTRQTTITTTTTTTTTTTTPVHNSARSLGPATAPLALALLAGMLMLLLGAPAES

[10] = tested on: Streptococcus sp. 'group A'; assay: Streptococcus pyogenes SK(-)GAS viability under kanamycin – luminescence, BacTiterGlo, confirmation, counter-screen for streptokinase expression inhibitor project, dose response (AID 1900); format: functional, organism-based
[11] = target: T6, Short transient receptor potential channel 4 (Mus musculus, UniProt Q9QUQ5); assay: calcium entry via TRPC4 opening agents – cell-based, HEK293 TRPC4/mu-opioid, Fluo-4 calcium, dose response (AID 434937); format: functional
T6 sequence (Q9QUQ5 whole entry): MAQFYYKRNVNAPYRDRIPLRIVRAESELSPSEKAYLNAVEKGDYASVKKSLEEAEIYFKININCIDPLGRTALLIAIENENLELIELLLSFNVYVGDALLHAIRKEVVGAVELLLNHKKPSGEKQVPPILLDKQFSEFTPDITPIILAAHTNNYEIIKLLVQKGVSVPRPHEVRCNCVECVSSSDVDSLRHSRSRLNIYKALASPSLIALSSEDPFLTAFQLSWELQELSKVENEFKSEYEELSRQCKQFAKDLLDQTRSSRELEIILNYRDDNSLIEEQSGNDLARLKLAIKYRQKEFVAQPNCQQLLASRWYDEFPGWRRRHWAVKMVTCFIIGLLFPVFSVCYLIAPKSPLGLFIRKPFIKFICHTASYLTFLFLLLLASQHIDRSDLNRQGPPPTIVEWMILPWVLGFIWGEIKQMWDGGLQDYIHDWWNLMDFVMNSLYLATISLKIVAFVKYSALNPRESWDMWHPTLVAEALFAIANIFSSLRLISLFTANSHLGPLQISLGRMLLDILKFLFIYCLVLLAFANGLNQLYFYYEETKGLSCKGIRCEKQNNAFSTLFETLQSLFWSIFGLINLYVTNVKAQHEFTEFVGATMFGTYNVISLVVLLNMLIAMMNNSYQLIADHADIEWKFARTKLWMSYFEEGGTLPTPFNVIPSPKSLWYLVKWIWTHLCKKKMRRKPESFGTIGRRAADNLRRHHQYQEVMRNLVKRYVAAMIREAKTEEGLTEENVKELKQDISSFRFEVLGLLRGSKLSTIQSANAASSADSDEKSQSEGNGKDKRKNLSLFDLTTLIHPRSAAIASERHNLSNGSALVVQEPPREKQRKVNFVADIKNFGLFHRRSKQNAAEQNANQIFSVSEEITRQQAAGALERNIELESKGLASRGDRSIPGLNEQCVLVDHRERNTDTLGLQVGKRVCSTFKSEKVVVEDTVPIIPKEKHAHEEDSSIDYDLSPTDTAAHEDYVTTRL

Streptococcus = assay: GAS UMAA2166 growth inhibition – luminescence, BacTiterGlo, counter-screen for streptokinase expression inhibitor project, dose response (AID 1915); format: functional, organism-based;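 further: potency for reduction of bacterial viability or growth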
[12] = Vero E6 cell cytotoxicity, dose response, cytotoxicity control for non-replicating M. tuberculosis project, secondary assay (AID 492998); format: functional, VeroE6; conditions: Vero C1008
[13] = THP-1 cell cytotoxicity, dose response, cytotoxicity control for non-replicating M. tuberculosis project (AID 489025); format: functional
cells = format: functional

SMILES: CC(=O)Nc1ccc(SCC(=O)Nc2ccc(Cl)cn2)cc1
- IC50 [1]: > 79.4 µM (inactive)
- IC50 [2]: > 79.4 µM (inactive)
- IC50 [3]: > 79.4 µM (inactive)

SMILES: O=C(O)c1cc(/N=N\c2ccc([As](=O)(O)O)cc2)ccc1O
- AC50 (Cytochrome P450 2C19): inconclusive
- AC50 (Cytochrome P450 2D6): inconclusive

SMILES: NNC(=O)c1cc(O)c(O)c(O)c1
- AC50 (Caspase-6): 2.43 µM (active)
- AC50 [4]: 5.41 µM (active)
- EC50 [5]: > 38 µM (not active)
- EC50 [6]: 41.7 µM (active)
- EC50 [7]: 82.6 µM (active)
- EC50 [8]: 69.3 µM (active)
- EC50 [9]: 8.04 µM (active)

SMILES: Cc1ccc(C(=O)NNC(=S)NC(=O)c2ccc(Cl)cc2)cc1
- AC50 (Cytochrome P450 2C19; read-out: AC50): 35.5 µM (inconclusive)
- EC50 [10]: 0.182 µM (active)
- AC50 (Cytochrome P450 2D6): inconclusive
- EC50 [11]: 2.11 µM (active)
- EC50 (Streptococcus): 3.71 µM (active)
- CC50 [12]: 17 µM (active)
- CC50 [13]: 22.9 µM (active)
- IC50 (cells): < 0.1 µM (active)

SMILES: Cc1ccc(OCC(=O)N/N=C\c2ccco2)c(C)c1
- IC50 [1]: > 79.4 µM (inactive)
- IC50 [2]: > 79.4 µM (inactive)
- IC50 [3]: > 79.4 µM (inactive)
